Among the test systems are DLD-1; LXFL 529; KM-20L2; DU-145; XF498; NCI/ADR-RES; HOP-18; MCF7; RXF 631.
Assay in all cases: DTP human tumour cell line panel, 48 h

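Following 48 hours of exposure in 96-well plates, responses at five concentrations were used to interpolate endpoints linearly. The concentration for 50% growth inhibition is given as GI50.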 Activity calls are given as the source filed them. Rule as the data show it: active = GI50 up to about 1.1 µM and inactive = higher.

The GI50 is the concentration at which growth is held to half of that of the control. Turning to `COc1cc(C(=O)c2cocc2C(=O)c2ccc3c(c2)OCO3)cc(OC)c1OC`, the GI50 with DLD-1 is 0.867 µM (active); with LXFL 529, 0.871 µM (active); in the experiment on KM-20L2, 0.596 µM (active); in the experiment with DU-145, 1.17 µM (inactive); with XF498 it was 1.34 µM (inactive); in the experiment on NCI/ADR-RES it was 142 nM (active). For the same compound, the GI50 with HOP-18 was > 51.1 µM (inactive); in the experiment on MCF7 it was 217 nM (active).

For `Nc1c(Br)c(=O)[nH]c(=O)n1COCCO`, the GI50 in the experiment with DLD-1, in the experiment on LXFL 529, in the experiment on XF498, with HOP-18 and in the experiment with RXF 631 was > 100 µM (inactive) each time.

With `C[n+]1cn(CC(=O)c2ccccc2)c(C(N)=O)c1N`, the GI50 was > 100 µM (inactive) in the experiment on DLD-1; 61.7 µM (inactive) in the experiment on LXFL 529; > 100 µM (inactive) in the experiment on KM-20L2; > 100 µM (inactive) in the experiment with HOP-18; > 100 µM (inactive) with RXF 631.

In the case of `O/N=C1\C(=C\c2ccc3c(c2)OCCO3)CCCC1C(NO)c1ccc2c(c1)OCCO2` (stereo unspecified), the GI50 with DLD-1 was 31.6 µM (inactive); with LXFL 529 it was 20.2 µM (inactive); with KM-20L2, 19 µM (inactive); with HOP-18, 43.4 µM (inactive); in the experiment on RXF 631 it was 32.9 µM (inactive).

Turning to `N#CC(C(=O)CCCC(=O)Nc1ccccc1[N+](=O)[O-])c1c(Cl)cccc1Cl` (stereo unspecified), the GI50 with DLD-1 is > 100 µM (inactive); in the experiment on LXFL 529, > 100 µM (inactive); in the experiment with KM-20L2, > 100 µM (inactive); in the experiment with XF498, > 100 µM (inactive); in the experiment with HOP-18, 31 µM (inactive); in the experiment with RXF 631, > 100 µM (inactive).

In the case of `COc1nc2c(OC)cccc2c(OC)c1C=O`, the GI50 in the experiment with KM-20L2 was > 100 µM (inactive); in the experiment on XF498, 18.8 µM (inactive); in the experiment with HOP-18, > 100 µM (inactive).

Take `CC(C)(C)CC(C)(C)c1cc2c(O)c(c1)Cc1cc(C(C)(C)CC(C)(C)C)cc(c1O)Cc1cc(C(C)(C)CC(C)(C)C)cc(c1O)Cc1cc(C(C)(C)CC(C)(C)C)cc(c1O)Cc1cc(C(C)(C)CC(C)(C)C)cc(c1O)C2`: the GI50 in the experiment with DLD-1, with LXFL 529, in the experiment on KM-20L2 and with XF498 was > 100 µM (inactive) throughout.

As to `O=C(O)Cc1ccc2c(c1O)C(=O)c1c(ccc(CC(=O)O)c1O)C2=O`, the GI50 in the experiment with DLD-1, in the experiment with LXFL 529, in the experiment with KM-20L2, in the experiment with XF498 and with HOP-18 was > 100 µM (inactive) throughout.

As for `CCN(CC)c1ccc(/N=N/c2ccc(-c3nc4cccnc4o3)cc2)cc1`, the GI50 in the experiment with DLD-1 is 60.3 µM (inactive); in the experiment with LXFL 529, > 100 µM (inactive); with KM-20L2, > 100 µM (inactive); in the experiment on XF498 it was > 100 µM (inactive).

Turning to `COC(=O)C12C3C=CC(O3)C1C1C=CC2O1` (stereo unspecified), the GI50 with DLD-1, with LXFL 529, in the experiment with KM-20L2, in the experiment on XF498 and in the experiment on HOP-18 was > 100 µM (inactive) throughout.

Consider `CC(CC(=O)Nc1ccc(NC(=O)CC(C)/N=N\C(N)=S)cc1)/N=N\C(N)=S` (stereo unspecified), for which the GI50 with DLD-1, with LXFL 529, in the experiment on KM-20L2, in the experiment on XF498, in the experiment on HOP-18 and with RXF 631 was > 100 µM (inactive) throughout.

With `O=c1[nH]c(=O)n(C2OC(CO)C(O)C(O)C2O)cc1F` (stereo unspecified), the GI50 in the experiment with DLD-1 is > 100 µM (inactive); with LXFL 529, > 100 µM (inactive); in the experiment with KM-20L2, > 100 µM (inactive); in the experiment on DU-145, > 100 µM (inactive); in the experiment with XF498 it was > 100 µM (inactive); in the experiment on NCI/ADR-RES it was > 100000 nM (inactive). Besides, the GI50 in the experiment with HOP-18 was > 100 µM (inactive); with MCF7, > 100000 nM (inactive).

Take `Cc1c(OCCCOc2ccc3c(=O)cc(-c4ccccc4)oc3c2C)ccc2c(=O)cc(-c3ccccc3)oc12`: the GI50 in the experiment on DLD-1, in the experiment with LXFL 529, with KM-20L2, in the experiment on XF498 and with HOP-18 was > 100 µM (inactive) each time.

`COC12OCCN(C)C1=CC(=O)C1N=NCC12` (stereo unspecified): the GI50 in the experiment on DLD-1, in the experiment with LXFL 529, in the experiment on HOP-18 and in the experiment with RXF 631 was > 100 µM (inactive) throughout.

Regarding `Cc1ccccc1C(=O)c1cc(O)ccc1O`, the GI50 was 55.7 µM (inactive) in the experiment on DLD-1; > 100 µM (inactive) in the experiment with LXFL 529; 32.6 µM (inactive) in the experiment on KM-20L2; > 100 µM (inactive) in the experiment on XF498; > 100 µM (inactive) in the experiment on HOP-18; > 100 µM (inactive) with RXF 631.

As to `CC1=Nc2c(O)nc(S)nc2NC(c2ccc(Cl)c(Cl)c2)C1` (stereo unspecified), the GI50 was 31.6 µM (inactive) in the experiment on DLD-1; 19.4 µM (inactive) in the experiment on LXFL 529; 25.6 µM (inactive) with KM-20L2; > 65.8 µM (inactive) in the experiment with XF498; > 89.1 µM (inactive) in the experiment with HOP-18.

In the case of `O=C(C#Cc1ccccc1)N1c2ccccc2CC1c1c[nH]c2ccccc12` (stereo unspecified), the GI50 in the experiment with DLD-1 is 2.07 µM (inactive); with LXFL 529, 12.3 µM (inactive); with KM-20L2 it was 21.9 µM (inactive); in the experiment on RXF 631 it was 14.3 µM (inactive).

Consider `COc1ccc2c3c([nH]c(=O)c2c1C(=O)O)-c1ccccc1CC3`, for which the GI50 in the experiment on DLD-1, in the experiment with LXFL 529, with KM-20L2, in the experiment with XF498 and in the experiment with RXF 631 was > 100 µM (inactive) each time.

In the case of `OCC1CC2CC1C1(C2)OCCO1` (stereo unspecified), the GI50 in the experiment with DLD-1, with LXFL 529, in the experiment with KM-20L2, in the experiment on XF498, in the experiment on HOP-18 and in the experiment on RXF 631 was > 100 µM (inactive) in each case.

Regarding `COc1ccc2c(c1)CCCC1C3=NCCC3(C)CSC21` (stereo unspecified), the GI50 was 58.5 µM (inactive) in the experiment on LXFL 529, 22.8 µM (inactive) in the experiment on KM-20L2, > 100 µM (inactive) with XF498 and 80.4 µM (inactive) in the experiment with HOP-18.

With `CC(C)c1ccc(/C=C/c2cc(C(=O)NNC(=O)NC3CCCCC3)nc(S)n2)cc1`, the GI50 with DLD-1, with LXFL 529, with KM-20L2, with XF498, with HOP-18 and in the experiment with RXF 631 was > 100 µM (inactive) in each case.

Turning to `CCC1(Br)C(=O)NC(=O)N(C2CC(O)C(CO)O2)C1N=[N+]=[N-]` (stereo unspecified), the GI50 in the experiment on DLD-1, in the experiment with LXFL 529, with KM-20L2 and in the experiment on XF498 was > 100 µM (inactive) throughout.

As to `O=Cc1[nH]c2ccccc2c1Br`, the GI50 with DLD-1 was 22.6 µM (inactive); with LXFL 529 it was 25.5 µM (inactive); in the experiment with KM-20L2, 22.2 µM (inactive); in the experiment on XF498, 30.1 µM (inactive); in the experiment with HOP-18, 27.7 µM (inactive); in the experiment with RXF 631 it was 20 µM (inactive).

For `OCC(O)C(O)c1nn(-c2ccccc2)c2nc3cc(Cl)c(Cl)cc3nc12` (stereo unspecified), the GI50 with DLD-1 was 26.1 µM (inactive); with LXFL 529, 20.6 µM (inactive); in the experiment on KM-20L2 it was 26.7 µM (inactive); with XF498, 28.5 µM (inactive); in the experiment with HOP-18 it was 26.7 µM (inactive); in the experiment with RXF 631 it was 18.9 µM (inactive).

As for `CC[P+]1(CC)CCCC1`, the GI50 in the experiment on DLD-1, in the experiment on LXFL 529, with KM-20L2, with XF498 and with HOP-18 was > 100 µM (inactive) in each case.

As to `NC(=O)C(=Cc1ccc(C(O)P(=O)(O)O)cc1)C(N)=O` (stereo unspecified), the GI50 in the experiment with DLD-1, in the experiment with LXFL 529, with KM-20L2, in the experiment with XF498, in the experiment with HOP-18 and in the experiment with RXF 631 was > 100 µM (inactive) throughout.

Take `COC1CC(O[C@H]2CC[C@@]3(C)C(=CCC4(O)C3CCC35C(=O)OC6(C)O[C@@]43CCC65)C2)OC(C)C1O` (stereo partly specified): the GI50 with DLD-1, in the experiment on LXFL 529, with KM-20L2, in the experiment with XF498 and in the experiment with HOP-18 was > 100 µM (inactive) each time.

On to `C[C@@H](C1CCC2C3C(=CC(=O)[C@@]21C)[C@H](C)[C@]1(CCC(=O)O1)C1OC31)[C@H]1C[C@]2(C)O[C@@](C)(O1)OC2(C)C` (stereo partly specified), for which the GI50 in the experiment with DLD-1, in the experiment on LXFL 529, in the experiment with KM-20L2, in the experiment with XF498, in the experiment on HOP-18 and in the experiment with RXF 631 was > 100 µM (inactive) in each case.

Take `C1CSC(=[N+]2CC[N+](=C3SCCS3)CC2)S1`: the GI50 in the experiment on DLD-1, in the experiment with LXFL 529, in the experiment with KM-20L2, in the experiment with HOP-18 and in the experiment on RXF 631 was > 100 µM (inactive) each time.

As for `COc1ccc(CCc2cc(OC)c(OC)c(OC)c2)cc1`, the GI50 in the experiment on DLD-1 was < 0.01 µM (active); in the experiment on LXFL 529, 0.0552 µM (active); in the experiment with KM-20L2 it was 0.0128 µM (active); in the experiment with DU-145, 0.0935 µM (active); in the experiment with XF498, < 0.01 µM (active); in the experiment with NCI/ADR-RES, 62.2 nM (active). In addition, the GI50 was > 100 µM (inactive) with HOP-18, 28.3 nM (active) with MCF7 and < 0.0166 µM (active) with RXF 631.

These data come from ChEMBL document CHEMBL1201862, “PubChem BioAssay data set” (2004).
